The numbers were not newly measured in patent US12193471B2, “Aerosolizable formulation” (NICOVENTURES TRADING LIMITED, priority 2018, dated 2025), which cites them from elsewhere.

For this series the following is noted: compared to base cyclodextrins such as β-cyclodextrin.

For the substance 2-hydroxy-propyl-β-cyclodextrin, the solubility in water entry is reported as “increased solubility in water”.
